In publication PMC10580965 (Microbiology Spectrum, 2023):
≈ marks a conversion by molar mass, not a printed value. Read-outs that look alike come from different tables or passages of the source. Bridge positions count the residues as written; N and C are the ends. Square brackets hold non-standard residues; d marks the D form. Peptide text beside a SMILES is read from it. * marks the point of attachment. Ileψ(thiazoline)Cys = CC[C@H](C)[C@H](N)C1=N[C@H](C(=O)*)CS1; dOrn = NCCC[C@@H](N)C(=O)O; X1 = CC[C@H](C)CCCCC(=O)*; Dab = NCC[C@H](N)C(=O)O

Tests used:
[1] = pH 7; cited from earlier work
[2] = system: C. pseudotuberculosis wild-type
[3] = system: C. pseudotuberculosis ΔlysX complement
Corynebacterium spp. = details: cited from earlier work

Compound	Charge [1]	MIC wt [2] [µg/mL]	MIC ΔlysX complement [3] [µg/mL]	MIC wt ([2]; 24 h) [µg/mL]	susceptibility breakpoint (Corynebacterium spp.) [µg/mL]	MIC ΔlysX complement ([3]; 24 h) [µg/mL]
CC1(C)S[C@@H]2[C@H](NC(=O)[C@H](N)c3ccccc3)C(=O)N2[C@H]1C(=O)O [Ampicillin]	0	–	–	–	–	–
CN[C@@H]1[C@@H](O[C@H]2O[C@H](CO)[C@@H](N)[C@H](O)[C@H]2O)OC2C[C@@H](N)[C@@H](O[C@H]3[C@H](O)[C@@H](O)[C@H](N)C[C@@H]3N)OC2[C@@H]1O (some centres unmarked) [Apramycin]	+5	20 (≈ 37.1 µM)	20 (≈ 37.1 µM)	–	–	–
CC1(C)S[C@@H]2[C@H](NC(=O)[C@H](NC(=O)N3CCNC3=O)c3ccccc3)C(=O)N2[C@H]1C(=O)O [Azlocillin]	−1	0.156 (≈ 0.338 µM)	–	–	–	–
CC[C@H](C)[C@H](N)C1=N[C@H](C(=O)N[C@@H](CC(C)C)C(=O)N[C@H](CCC(=O)O)C(=O)N[C@H](C(=O)N[C@H]2CCCCNC(=O)[C@H](CC(N)=O)NC(=O)[C@@H](CC(=O)O)NC(=O)[C@H](Cc3cnc[nH]3)NC(=O)[C@@H](Cc3ccccc3)NC(=O)[C@H]([C@@H](C)CC)NC(=O)[C@@H](CCCN)NC2=O)[C@@H](C)CC)CS1 [Bacitracin] ({Ileψ(thiazoline)Cys}-L[dE]IK[dOrn]I[dF]H[dD]N; lactam 4-C (inferred); N-terminus assumed)	0	–	–	6.4 (≈ 4.5 µM)	–	–
CO/N=C(\C(=O)N[C@@H]1C(=O)N2C(C(=O)O)=C(CSc3nc(=O)c(=O)[nH]n3C)CS[C@H]12)c1csc(N)n1 [Ceftriaxone]	−2	0.625 (≈ 1.13 µM)	–	–	–	–
O=C(N[C@H](CO)[C@H](O)c1ccc([N+](=O)[O-])cc1)C(Cl)Cl [Chloramphenicol]	0	10 (≈ 30.9 µM)	–	–	–	–
CC[C@H]1OC(=O)[C@H](C)[C@@H](O[C@H]2C[C@@](C)(OC)[C@@H](O)[C@H](C)O2)[C@H](C)[C@@H](O[C@@H]2O[C@H](C)C[C@H](N(C)C)[C@H]2O)[C@](C)(O)C[C@@H](C)C(=O)[C@H](C)[C@@H](O)[C@]1(C)O [Erythromycin]	+1	0.156 (≈ 0.213 µM)	–	–	–	–
CNC(C)C1CCC(N)C(OC2C(N)CC(N)C(OC3OCC(C)(O)C(NC)C3O)C2O)O1 (centres unmarked) [Gentamicin]	+5	5 (≈ 10.5 µM)	5 (≈ 10.5 µM)	–	4	–
NC[C@H]1O[C@H](O[C@H]2[C@H](O)[C@@H](O[C@H]3O[C@H](CO)[C@@H](O)[C@H](N)[C@H]3O)[C@H](N)C[C@@H]2N)[C@H](O)[C@@H](O)[C@@H]1O [Kanamycin]	+4	10 (≈ 20.6 µM)	10 (≈ 20.6 µM)	–	–	–
CC[C@H](C)[C@H](NC(=O)CN)C(=O)NCC(=O)N[C@@H](C)C(=O)N[C@H](C(=O)N[C@@H](CC(C)C)C(=O)N[C@@H](CCCCN)C(=O)N[C@H](C(=O)N[C@@H](CC(C)C)C(=O)N[C@H](C(=O)N[C@H](C(=O)NCC(=O)N[C@@H](CC(C)C)C(=O)N1CCC[C@H]1C(=O)N[C@@H](C)C(=O)N[C@@H](CC(C)C)C(=O)N[C@H](C(=O)N[C@@H](CO)C(=O)N[C@@H](Cc1c[nH]c2ccccc12)C(=O)N[C@H](C(=O)N[C@@H](CCCCN)C(=O)N[C@@H](CCCNC(=N)N)C(=O)N[C@@H](CCCCN)C(=O)N[C@@H](CCCNC(=N)N)C(=O)N[C@@H](CCC(N)=O)C(=O)N[C@@H](CCC(N)=O)C(N)=O)[C@@H](C)CC)[C@@H](C)CC)[C@@H](C)O)[C@@H](C)O)C(C)C)C(C)C [Melittin]	+5	–	–	>40	–	>40
Cc1onc(-c2ccccc2)c1C(=O)N[C@@H]1C(=O)N2[C@@H]1SC(C)(C)[C@@H]2C(=O)O [Oxacillin]	−1	2.5 (≈ 6.23 µM)	–	–	–	–
CN(C)[C@@H]1C(O)=C(C(N)=O)C(=O)[C@@]2(O)C(O)=C3C(=O)c4c(O)cccc4[C@@](C)(O)[C@H]3[C@H](O)[C@@H]12 [Oxytetracycline]	0	0.625 (≈ 1.36 µM)	–	–	–	–
CC[C@H](C)CCCCC(=O)N[C@@H](CCN)C(=O)N[C@H](C(=O)N[C@@H](CCN)C(=O)N[C@H]1CCNC(=O)[C@H]([C@@H](C)O)NC(=O)[C@H](CCN)NC(=O)[C@H](CCN)NC(=O)[C@H](CC(C)C)NC(=O)[C@@H](Cc2ccccc2)NC(=O)[C@H](CCN)NC1=O)[C@@H](C)O [Polymyxin B] (X1-[Dab]T[Dab][Dab][Dab][dF]L[Dab][Dab]T; lactam 4-C (inferred); N-terminus assumed)	+5	–	–	640 (≈ 532 µM)	–	640 (≈ 532 µM)
CN[C@@H]1[C@H](O)[C@H](NC)[C@H]2O[C@@]3(O)C(=O)C[C@@H](C)O[C@H]3O[C@@H]2[C@H]1O [Spectinomycin]	+1	2.5 (≈ 7.52 µM)	2.5 (≈ 7.52 µM)	–	–	–
[H]/N=C(/N)N[C@H]1[C@H](O)[C@@H](O)[C@H](O[C@@H]2O[C@@H](C)[C@](O)(C=O)[C@H]2O[C@@H]2O[C@@H](CO)[C@H](O)[C@@H](O)[C@@H]2NC)[C@@H](N/C(N)=N\[H])[C@@H]1O [Streptomycin]	+3	20 (≈ 34.4 µM)	20 (≈ 34.4 µM)	–	–	–
CN(C)[C@@H]1C(O)=C(C(N)=O)C(=O)[C@@]2(O)C(O)=C3C(=O)c4c(O)cccc4[C@@](C)(O)[C@H]3C[C@@H]12 [Tetracycline]	−1	0.312 (≈ 0.702 µM)	–	–	–	–
CCCNC[C@]1(O)[C@H](C)O[C@@H](O[C@H]2[C@H](C)[C@@H](O[C@@H]3O[C@H](C)C[C@H](N(C)C)[C@H]3O)[C@](C)(O)C[C@@H](C)CN[C@H](C)[C@@H](O)[C@](C)(O)[C@@H](CC)OC(=O)[C@@H]2C)C[C@@]1(C)OC [Tulathromycin]	+3	2.5 (≈ 3.1 µM)	2.5 (≈ 3.1 µM)	–	–	–
CN[C@H](CC(C)C)C(=O)N[C@H]1C(=O)N[C@@H](CC(N)=O)C(=O)N[C@H]2C(=O)N[C@H]3C(=O)N[C@H](C(=O)N[C@H](C(=O)O)c4cc(O)cc(O)c4-c4cc3ccc4O)[C@H](O)c3ccc(c(Cl)c3)Oc3cc2cc(c3O[C@@H]2O[C@H](CO)[C@@H](O)[C@H](O)[C@H]2O[C@H]2C[C@](C)(N)[C@H](O)[C@H](C)O2)Oc2ccc(cc2Cl)[C@H]1O [Vancomycin]	+1	–	–	0.75 (≈ 0.518 µM)	–	–
Nisin	+4	80	80	–	–	–
